The source of these data is patent US10792301B2, “Therapeutic polysaccharide midi-GAGR and related materials and methods” (priority 2015, dated 2020).

Experiment [1] relates to Differentiated dopaminergic PC12 cells. The experiment is described as follows: LIVE/DEAD viability of differentiated PC12 cells exposed to 6-OHDA. The experiment is classed as cell-based. Particulars: 1 μM for 6 h, then 30 μM 6-OHDA for 24 h. The method, then:
Differentiated dopaminergic PC12 cells and primary mouse embryonic cortical neurons (E17, DIV14) were treated with mock (H2O) or 1 μM of dextran, alginate, HA-GAGR or midi-GAGR for 6 h and insulated by oxidative stressors (30 μM 6-OHDA [PC12] and 10 μM amyloid β peptide [cortical neurons]) for 24 h.

Another experiment concerns the target T1, FGFR1 (Mus musculus, UniProt P16092).
T1 construct: Whole mouse brains were homogenized for cytosol extraction in PMEE buffer containing 1% Igepal CA-630; from tissue; host or cells: mouse cerebral cortex / whole brain detergent extract
The experiment is described as follows: Affinity chromatography with midi-GAGR- or dextran-conjugated sepharose beads, FGFR1 immunoblot. The experiment is classed as binding. Particulars: brain extract in 0.5% Igepal PMEE buffer. The method, then: To examine whether midi-GAGR interacts with synaptosomal FGFR1 or not, an affinity chromatography using midi-GAGR-conjugated sepharose beads was performed. Either midi-GAGR or dextran were conjugated to epoxy-activated sepharose 6B that is a pre-activated medium that can be conjugated to the hydroxyl groups of carbohydrates. Briefly, 200 μL of 7.4 mM midi-GAGR or 5 kD dextran in H2O was mixed with 200 μL of epoxy-activated sepharose beads in a microtube and incubated on a rotator (16 h, 37° C.). The mixture was spun down at 1,000×g (10 min) to separate bead-bound polysaccharides from unbound. Unoccupied active sites on beads were blocked by incubation (4 h, 45° C.) in 1 M ethanolamine (pH 8). Then, beads were washed with three cycles of alternating pH solutions—0.1 M acetate buffer (pH 4) and 0.1 M Tris-HCl buffer (pH 8), both containing 0.5 M NaCl. The conjugation of polysaccharides to beads was confirmed by phenol-sulfuric acid colorimetry. Cerebral cortices were dissected from four female mice (BALB/C, 8 wks old) and homogenized with a hand grinder in 1 mL of PMEE homogenization buffer plus 1% Igepal CA-630 and protease inhibitors (PIs). The homogenate was centrifuged at 1,000×g (10 min) to remove nuclei and undisrupted cells. The supernatant was subjected to 5-6 strokes through 27 G needle. Post-nuclear supernatant was centrifuged at 1,000×g (15 min). […]

T1 sequence (P16092 22-822): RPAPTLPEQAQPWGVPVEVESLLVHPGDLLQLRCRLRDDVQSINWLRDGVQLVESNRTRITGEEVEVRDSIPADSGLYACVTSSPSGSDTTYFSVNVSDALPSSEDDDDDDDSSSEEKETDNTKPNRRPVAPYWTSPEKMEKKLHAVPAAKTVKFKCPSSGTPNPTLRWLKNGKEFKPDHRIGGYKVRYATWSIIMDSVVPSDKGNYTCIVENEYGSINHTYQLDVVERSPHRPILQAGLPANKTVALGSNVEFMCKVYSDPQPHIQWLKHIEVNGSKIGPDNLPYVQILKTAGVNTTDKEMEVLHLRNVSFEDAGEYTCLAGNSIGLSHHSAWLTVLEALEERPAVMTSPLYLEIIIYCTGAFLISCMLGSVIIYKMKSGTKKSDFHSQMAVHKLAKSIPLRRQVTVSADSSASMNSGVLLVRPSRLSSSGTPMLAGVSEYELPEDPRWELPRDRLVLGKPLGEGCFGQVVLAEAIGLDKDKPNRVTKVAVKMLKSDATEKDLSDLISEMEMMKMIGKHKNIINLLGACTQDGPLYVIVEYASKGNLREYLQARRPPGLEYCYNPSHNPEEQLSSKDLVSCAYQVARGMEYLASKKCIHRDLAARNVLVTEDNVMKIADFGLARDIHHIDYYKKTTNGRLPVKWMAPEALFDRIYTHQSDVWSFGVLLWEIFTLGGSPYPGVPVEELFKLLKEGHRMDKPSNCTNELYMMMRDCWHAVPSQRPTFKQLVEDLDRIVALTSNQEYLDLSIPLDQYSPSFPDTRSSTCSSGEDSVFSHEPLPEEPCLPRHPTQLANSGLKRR

dextran: the 6-OHDA-induced cell death result in experiment [1] is “did not”. For the same substance, on FGFR1, the “FGFR1 eluted from polysaccharide-conjugated beads” value is “not from dextran beads”.
